Patent US10307383B2, “Cosmetic composition for preventing or ameliorating hypersensitive skin comprising cedrol or derivatives thereof, or pharmaceutically acceptable salts thereof” (University of Seoul Industry Cooperation Foundation, priority 2017, dated 2019)
In brackets after ≈: the same amount, converted by molar mass.

How the values were obtained:
[1] = test system: psoriasis induced mice (imiquimod); assay: Keratosis reduction effect in the psoriasis induced mice (PASI); assay type: in vivo, Balb/c mouse; settings: for keratosis mean point (PASI): day 7, 100 mg/kg oral once a day, IMQ applied, IMQ alone 3.8
Method: (§1) To investigate the delayed effect of cedrol, cedryl acetate, and alpha-cedrene on the development of psoriasis, total 5 groups of mice were prepared (8 mice/group). First, the hair of the entire back of the 8-week-old male Balb/c mouse whose immune system was weakened was removed by using a hair clipper (Kimlaube Hair pen 325,327, Rikei, Korea). In the middle of the shaved back of the mouse, 2 mg of imiquimod (3M Health Care Limited, England) was applied in the area of 2 cm×1.5 cm and also 1,125 mg of imiquimod was applied on the right ear of the mouse every day once a day to induce psoriasis.
(§2) The mice prepared above were divided into the distilled water treated group (IMQ), the cedrol treated group (C), the cedryl acetate treated group (CA), and the alpha-cedrene treated group (CE). At this time, the mice were orally treated with distilled water at the concentration of 200 μl/mouse and cedrol or its derivatives at the concentration of 200 μl/mouse (100 mg/kg). The day when distilled water or the compound administration started was recorded as day 0 and the administration was performed once a day for a week, during which photo-recording was performed every day (FIGS. 2A˜2D). In the meantime, instead of applying imiquimod, 40 mg of vaseline was applied on the back of the control group (CONT) and 22.5 mg of vaseline was applied on the right ear of the control group. And the control group was orally administered with distilled water (200 μl/mouse).
Then, the psoriasis area severity index (PASI) was calculated to confirm the reduction effect of the compounds on keratosis. Keratosis is a symptom of psoriasis. The application of IMQ can induce keratosis.

[2] = test system: psoriasis induced mice (imiquimod); assay: Skin flair reduction effect in the psoriasis induced mice (PASI); assay type: in vivo, Balb/c mouse; settings: for skin flair mean point (PASI): day 7, 100 mg/kg oral once a day, IMQ applied, IMQ alone 4.00
Method: as §1, §2
Then, the psoriasis area severity index (PASI) was calculated to confirm the reduction effect of the compounds on skin flair. Skin flair is a symptom of psoriasis. The application of IMQ can induce skin flair.

[3] = test system: psoriasis induced mice (imiquimod); assay: Skin pain reduction effect in the psoriasis induced mice (back pinch, mice counted); assay type: in vivo, Balb/c mouse; settings: for number of mice showing skin pain: IMQ applied
Method: as §1, §2
When the back of the psoriasis induced mice orally administered with cedrol, cedryl acetate, and alpha-cedrene of Example <2-1> was pinched, those mice who sound painfully with strong rejection were counted. Skin pain is a symptom of psoriasis, and when IMQ is applied, skin pain becomes stronger as time goes by.

[4] = test system: psoriasis induced mice (imiquimod); assay: Skin wrinkle reduction effect in the psoriasis induced mice; assay type: in vivo, Balb/c mouse; settings: for number of mice showing skin wrinkles: IMQ applied, 8 mice/group
Method: as §1, §2
The psoriasis induced mice orally administered with cedrol, cedryl acetate, and alpha-cedrene of Example <2-1> were observed by the naked eye, and the number of mice showing skin wrinkles was counted. Skin wrinkle is a symptom of psoriasis, and when IMQ is applied, skin keratinization increases and accordingly skin wrinkles are formed as time goes by.

[5] = test system: psoriasis induced mice (imiquimod); assay: Recovery effect on ear thickness of the psoriasis induced mice after termination of imiquimod (PASI); assay type: in vivo, Balb/c mouse
Method: (§3) Imiquimod was applied to the psoriasis induced mice which had developed psoriasis for a week in Example <2-1>. The application was stopped 8 days after the application began. The groups CON and IMQ were treated with distilled water, the group C was treated with cedrol, the group CA was treated with cedryl acetate, the group CE was treated with alpha-cedrene alone at the concentration of 100 mg/kg in 200 μl, every day via oral-administration. Day 8 was the day the imiquimod application was stopped, since then the compounds were administered for 1 week once a day, during which photo-recording was performed (FIGS. 13A˜13D).
The psoriasis area severity index (Psoriasis Area Severity Index, PASI) was given from the point 1 to point 4, based on which the recovery effect on the ear thickness was evaluated.

[6] = test system: psoriasis induced mice (imiquimod); assay: Recovery effect on keratosis of the psoriasis induced mice after termination of imiquimod (PASI); assay type: in vivo, Balb/c mouse
Method: as §3
(§4) Then, the psoriasis area severity index (Psoriasis Area Severity Index, PASI) was calculated, based on which the recovery effect on keratosis was evaluated.

[7] = test system: psoriasis induced mice (imiquimod); assay: Recovery effect on skin flair of the psoriasis induced mice after termination of imiquimod (PASI); assay type: in vivo, Balb/c mouse; settings: for PASI reflecting skin flair: day 8 (imiquimod application stopped), 100 mg/kg oral; for skin flair disappearance (in words): on day 16, 100 mg/kg oral after termination of imiquimod
Method: as §3, §4

[8] = test system: psoriasis induced mice (imiquimod); assay: Recovery effect on hemorrhage spots of the psoriasis induced mice; assay type: in vivo, Balb/c mouse
Method: as §3
The psoriasis induced mice orally administered with cedrol, cedryl acetate, and alpha-cedrene of Example <3-1> were observed by the naked eye, and the number of mice showing the recovery of hemorrhage spots was counted.

[9] = test system: psoriasis induced mice (imiquimod); assay: Recovery effect on skin wrinkles of the psoriasis induced mice; assay type: in vivo, Balb/c mouse
Method: as §3
The psoriasis induced mice orally administered with cedrol, cedryl acetate, and alpha-cedrene of Example <3-1> were observed by the naked eye, and the number of mice showing the recovery of skin wrinkles was counted.

[10] = test system: psoriasis induced mice (imiquimod); assay: Accelerating effect on hair regrowth of the psoriasis induced mice; assay type: in vivo, Balb/c mouse; settings: for number of mice showing hair regrowth: 8 mice/group
Method: as §3
The psoriasis induced mice orally administered with cedrol, cedryl acetate, and alpha-cedrene of Example <3-1> were observed by the naked eye, and the number of mice showing hair regrowth was counted.

[11] = test system: IL-17A expression; assay: IL-17A inhibition assay in IL-17 luciferase-(LUCPorter) stable reporter cell line; settings: for Inhibition of IL-17A expression (%) Experiment-1 / Inhibition of IL-17A expression (%) Experiment-2 / Inhibition of IL-17A expression (%) Experiment-3: 6 hours; for expression of IL-17A (luciferase units): control group 2,582 units; for suppression of the expression of IL-17A (in words): 10, 100, or 1,000 μg/ml; for inhibition at 10 µg/mL / inhibition at 100 µg/mL / inhibition at 1000 µg/mL / IC50: Homo sapiens; for inhibition at 10 µg/mL / inhibition at 100 µg/mL / inhibition at 1000 µg/mL: read-out: Average Inhibition (%); for IC50: read-out: IC50 to inhibit the IL-17A expression by 50%
[12] = day 7, 100 mg/kg oral, IMQ alone 3
[13] = day 8 (imiquimod application stopped), 100 mg/kg oral
[14] = day 15, 100 mg/kg oral once a day after termination of imiquimod
[15] = day 8, 100 mg/kg oral, 8 mice/group
[16] = day 16, 100 mg/kg oral after termination of imiquimod
[17] = day 13, 100 mg/kg oral after termination of imiquimod
[18] = day 16, 100 mg/kg oral after termination of imiquimod, distilled water 5
[19] = 100 mg/kg oral after termination of imiquimod

Question: What does the source list for `CC1=CC[C@@]23C[C@@H]1C(C)(C)[C@@H]2CC[C@H]3C` [alpha-cedrene, Alpha-cedrene]?
Answer: keratosis reduction effect, comparison in words ([1]; 100 mg/kg oral, 7 days): strongest reduction effect; keratosis mean point (PASI) [1]: 2.66 point; skin flair reduction effect, comparison in words ([2]; 100 mg/kg oral, 7 days): strongest reduction effect; skin flair mean point (PASI) [2]: 3.33 point; skin pain reduction effect, comparison in words ([3]; 100 mg/kg oral, 7 days): strongest reduction effect; number of mice showing skin pain ([3]; during the 7 day observation period, 100 mg/kg oral): no mice; skin wrinkle reduction effect, comparison in words ([4]; 100 mg/kg oral, 7 days): strongest reduction effect; number of mice showing skin wrinkles ([4]; day 6, 100 mg/kg oral): one; number of mice showing skin wrinkles [4, 12]: one; PASI reflecting the ear thickness [5, 13]: 4.0±0.0 point; PASI reflecting the ear thickness [5, 14]: 0.7±0.6 point; PASI reflecting keratosis [6, 13]: 4.0±0.6 point; PASI reflecting keratosis [6, 14]: 0.3±0.6 point; PASI reflecting skin flair [7]: 4.0±1.0 point; skin flair disappearance (in words) [7]: skin flair of all mice disappeared; number of mice showing hemorrhage spots [8, 15]: 4 mice; number of mice showing hemorrhage spots [8, 16]: no mouse; number of mice showing skin wrinkles [9, 15]: 3 mice; number of mice showing skin wrinkles [9, 16]: no mouse; number of mice showing hair regrowth [10, 17]: one; number of mice showing hair regrowth [10, 18]: all the mice; expression of IL-17A, % by the control ([11]; 10 μg/ml): 79 % by the control; Inhibition of IL-17A expression (%) Experiment-1 ([11]; 10 μg/ml): 6%; Inhibition of IL-17A expression (%) Experiment-2 ([11]; 10 μg/ml): 3%; Inhibition of IL-17A expression (%) Experiment-3 ([11]; 10 μg/ml): 21%; expression of IL-17A (luciferase units) ([11]; 10 μg/ml): 2,042±114 units; expression of IL-17A, % by the control ([11]; 100 μg/ml): 68 % by the control; Inhibition of IL-17A expression (%) Experiment-1 ([11]; 100 μg/ml): 21%; Inhibition of IL-17A expression (%) Experiment-2 ([11]; 100 μg/ml): 11%; Inhibition of IL-17A expression (%) Experiment-3 ([11]; 100 μg/ml): 32%; expression of IL-17A (luciferase units) ([11]; 100 μg/ml): 1,757±310 units; expression of IL-17A, % by the control ([11]; 1,000 μg/ml): 65 % by the control; Inhibition of IL-17A expression (%) Experiment-1 ([11]; 1000 μg/ml): 36%; Inhibition of IL-17A expression (%) Experiment-2 ([11]; 1000 μg/ml): 23%; Inhibition of IL-17A expression (%) Experiment-3 ([11]; 1000 μg/ml): 35%; expression of IL-17A (luciferase units) ([11]; 1,000 μg/ml): 1,688±64 units; suppression of the expression of IL-17A (in words) [11]: dose-dependently; inhibition at 10 µg/mL [11]: 10%; inhibition at 100 µg/mL [11]: 21.3%; inhibition at 1000 µg/mL [11]: 31.3%; IC50 [11]: 1510 µg/mL (≈ 7.37 mM)

Question: Which results are given for `C[C@@H]1CC[C@H]2C(C)(C)[C@H]3C[C@@]12CC[C@@]3(C)O` [cedrol, Cedrol]?
Answer: keratosis mean point (PASI) [1]: 3.00 point; skin flair mean point (PASI) [2]: 3.33 point; number of mice showing skin pain ([3]; day 4, 100 mg/kg oral, 8 mice/group): one; number of mice showing skin pain ([3]; day 5, 100 mg/kg oral, 8 mice/group): no mice; number of mice showing skin wrinkles ([4]; day 5, 100 mg/kg oral): one; number of mice showing skin wrinkles [4, 12]: 2 mice; PASI reflecting the ear thickness [5, 13]: 4.0±0.6 point; PASI reflecting the ear thickness ([5]; day 16, 100 mg/kg oral once a day after termination of imiquimod): 0.7±0.6 point; keratosis recovery effect, comparison in words [6, 19]: strongest recovery effect; PASI reflecting keratosis [6, 13]: 3.0±0.6 point; keratosis recovered to normal (in words) ([6]; on day 15, 100 mg/kg oral after termination of imiquimod): all 8 mice were recovered to normal; skin flair recovery effect, comparison in words [7, 19]: strongest recovery effect; PASI reflecting skin flair [7]: 3.0±0.6 point; skin flair disappearance (in words) [7]: skin flair of all mice disappeared; hemorrhage spot recovery effect, comparison in words [8, 19]: strongest recovery effect; number of mice showing hemorrhage spots [8, 15]: 6 mice; number of mice showing hemorrhage spots ([8]; day 12, 100 mg/kg oral after termination of imiquimod): no mouse; skin wrinkle recovery effect, comparison in words [9, 19]: strongest recovery effect; number of mice showing skin wrinkles ([9]; after day 15, 100 mg/kg oral after termination of imiquimod): no mouse; number of mice showing skin wrinkles [9, 15]: 5 mice; accelerating effect on hair regrowth, comparison in words [10, 19]: strongest accelerating effect; number of mice showing hair regrowth [10, 17]: 2 mice; number of mice showing hair regrowth [10, 18]: all the mice; expression of IL-17A, % by the control ([11]; 10 μg/ml): 67 % by the control; Inhibition of IL-17A expression (%) Experiment-1 ([11]; 10 μg/ml): 24%; Inhibition of IL-17A expression (%) Experiment-2 ([11]; 10 μg/ml): 0%; Inhibition of IL-17A expression (%) Experiment-3 ([11]; 10 μg/ml): 33%; expression of IL-17A (luciferase units) ([11]; 10 μg/ml): 1,718±174 units; expression of IL-17A, % by the control ([11]; 100 μg/ml): 57 % by the control; Inhibition of IL-17A expression (%) Experiment-1 ([11]; 100 μg/ml): 21%; Inhibition of IL-17A expression (%) Experiment-2 ([11]; 100 μg/ml): 14%; Inhibition of IL-17A expression (%) Experiment-3 ([11]; 100 μg/ml): 43%; expression of IL-17A (luciferase units) ([11]; 100 μg/ml): 1,460±124 units; expression of IL-17A, % by the control ([11]; 1,000 μg/ml): 28 % by the control; Inhibition of IL-17A expression (%) Experiment-1 ([11]; 1000 μg/ml): 76%; Inhibition of IL-17A expression (%) Experiment-2 ([11]; 1000 μg/ml): 59%; Inhibition of IL-17A expression (%) Experiment-3 ([11]; 1000 μg/ml): 72%; expression of IL-17A (luciferase units) ([11]; 1,000 μg/ml): 715±45 units; suppression of the expression of IL-17A (in words) [11]: dose-dependently; inhibition at 10 µg/mL [11]: 19%; inhibition at 100 µg/mL [11]: 26%; inhibition at 1000 µg/mL [11]: 69%; IC50 [11]: 726 µg/mL (≈ 3.26 mM)
